# Test results as given in US9446145B2, “Curcumin-antibody conjugates as anti-cancer agents” (priority 2009, dated 2016).
# Key:
# [1] = tested on: B16F10 melanoma cells; assay: B16F10 melanoma cell death IC50 (live cell counts 24 h after treatment); assay type: cell-based; settings: Mus musculus, B16-F10, 24 h, free/solubilized curcumin, read-out: IC50 (concentration required for 50% B16F10 melanoma cell death)
# Method: (§1) B16F10 melanoma cells were plated in a 96-well tissue culture plate with 2,000 cells in 50 μl of medium (DMEM+10% fetal bovine serum+1% penicillin-streptomycin) per well. After 24 hours, the targeted curcumin derivative (linked to 633 dye) was administered in a range of concentrations-10 nM, 20 nM, 30 nM, 50 nM, 100 nM. The product was diluted in neurobasal medium (+1% penicillin-streptomycin, 1% 1-glutamine, 2% B27 supplement), with 50 μl per well, and 2 wells per concentration. Control wells were treated with corresponding concentrations of free MUC18 antibody coupled to 633 dye. The plate was imaged after 24 hours using visible light and fluorescent microscopes. Using cell counts from four frames per well, the mean live cell number and mean standard deviation for each concentration (and its corresponding control) were found. The data was compiled and graphed on Kaleida Graph. […] See below. Each corresponding control well received the same amount of curcumin-free Mel-CAM-Dylight800.
# Determined using same methods as step 1a. Dilution of 100 nM, 200 nM, 300 nM, 400 nM, 500 nM, 1 μM, 10 μM, 20 μM, 30 μM, 40 μM, and 50 μM were made using a 40 mM stock solution of curcumin in DMSO. Curcumin IC50 was compared to curc-MUC18 IC50 using Kaleida Graph.
# [2] = tested on: GL261 glioblastoma cells; assay: GL261 glioblastoma cell killing IC50 (same approach as for B16F10); assay type: cell-based; settings: Mus musculus, solubilized non-targeted curcumin
# Method: as §1
# The same approach used for the B16F10 melanoma cells (see above) was next used for the glioblastoma GL261 cells by attaching curcumin to an antibody against the […] antigen, which is expressed on the surface of grade III/IV glioblastoma (Strik, H. M., et al., Galectin-3: Cellular Distribution and Correlation with WHO-grade in Human Gliomas. Journal of Neuro-Oncology, 53(1): p. 13-20 (2001)). […]
structure (smiles),measurement,setting,value
"COc1cc(C=CC(=O)CC(=O)C=Cc2ccc(O)c(OC)c2)ccc1O [curcumin, 1,7-bis(4-hydroxy-3-methoxyphenyl)-1,6-heptadiene-3,5-dione]",IC50,[1],15 µM
same,IC50,[2],10 µM
